Patent US9290459B1, “Substituted bicyclic dihydropyrimidinones and their use as inhibitors of neutrophil elastase activity” (Boehringer Ingelheim International GmbH, priority 2013, dated 2016)

Target: Human neutrophil elastase (Homo sapiens (Human), UniProt P08246)
Assay: Human Neutrophil Elastase Assay
Type: biochemical
Settings: human neutrophil elastase, substrate MeOSuc-Ala-Ala-Pro-Val-AMC 250 μM, pH 7.5; read-out: IC50

Human neutrophil elastase, sequence (P08246 30-247): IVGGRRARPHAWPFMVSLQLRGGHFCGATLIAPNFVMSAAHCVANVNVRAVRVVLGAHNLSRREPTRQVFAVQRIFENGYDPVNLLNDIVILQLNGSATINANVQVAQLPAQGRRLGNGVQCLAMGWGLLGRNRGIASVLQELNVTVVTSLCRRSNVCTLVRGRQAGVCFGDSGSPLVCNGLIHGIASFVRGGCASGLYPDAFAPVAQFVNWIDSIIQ

Structure (SMILES)	IC50 [nM]
CN1C(=O)N(c2cccc(C(F)F)c2)C2=C(C(=O)CC2)C1c1ccc(C#N)cc1S(C)(=O)=O (centres unmarked) [Example 27, 4-(1-(3-(Difluoromethyl)phenyl)-3-methyl-2,5-dioxo-2,3,4,5,6,7-hexahydro-1H-cyclopenta[d]pyrimidin-4-yl)-3-(methylsulfonyl)benzonitrile]	1.9
CN1C(=O)N(c2ccnc(C(F)(F)F)c2)C2=C(C(=O)CC2)C1c1ccc(C#N)cc1 (centres unmarked) [Example 28, 4-(3-Methyl-2,5-dioxo-1-(2-(trifluoromethyl)pyridin-4-yl)-2,3,4,5,6,7-hexahydro-1H-cyclopenta[d]pyrimidin-4-yl)benzonitrile]	36.7
COC(=O)CCCS(=O)(=O)N1C(=O)N(c2cccc(C(F)(F)F)c2)C2=C(C(=O)CC2)C1c1ccc(C#N)cc1 (centres unmarked) [Example 34, Methyl 4-(4-(4-Cyanophenyl)-2,5-dioxo-1-(3-(trifluoromethyl)phenyl)-6,7-dihydro-1H-cyclopenta[d]pyrimidin-3(2H,4H,5H)-ylsulfonyl)butanoate]	3.2
CS(=O)(=O)N1C(=O)N(c2cccc(C(F)F)c2)C2=C(C(=O)CC2)C1c1ccc(C#N)cc1 (centres unmarked) [Example 36, 4-(1-(3-(Difluoromethyl)phenyl)-3-(methylsulfonyl)-2,5-dioxo-2,3,4,5,6,7-hexahydro-1H-cyclopenta[d]pyrimidin-4-yl)benzonitrile]	7.2
CS(=O)(=O)c1cc(C#N)ccc1[C@@H]1C2=C(CCC2=O)N(c2cccc(C(F)(F)F)c2)C(=O)N1S(C)(=O)=O [Example 37, 3-(Methylsulfonyl)-4-(3-(methylsulfonyl)-2,5-dioxo-1-(3-(trifluoromethyl)phenyl)-2,3,4,5,6,7-hexahydro-1H-cyclopenta[d]pyrimidin-4-yl)benzonitrile]	< 1
CS(=O)(=O)c1cc(C#N)ccc1C1C2=C(CCC2=O)N(c2ccnc(C(F)(F)F)c2)C(=O)N1S(C)(=O)=O (centres unmarked) [Example 39, 3-(Methylsulfonyl)-4-(3-(methylsulfonyl)-2,5-dioxo-1-(2-(trifluoromethyl)pyridin-4-yl)-2,3,4,5,6,7-hexahydro-1H-cyclopenta[d]pyrimidin-4-yl)benzonitrile]	7

More lines, now with the values ahead:

IC50 [nM]	Structure (SMILES)
6.4	Cc1cc(C#N)ccc1C1C2=C(CCC2=O)N(c2cccc(C(F)(F)F)c2)C(=O)N1C (centres unmarked) [Example 26.2]
9.5	COc1cc(C#N)ccc1C1C2=C(CCC2=O)N(c2cccc(C(F)(F)F)c2)C(=O)N1C (centres unmarked) [Example 26.3]
26.2	CN1C(=O)N(c2cccc(C(F)(F)F)c2)C2=C(C(=O)CC2)C1c1ccc(C#N)cc1Cl (centres unmarked) [Example 26.4]
3410	CN1C(=O)N(c2cccc(C(F)F)c2)C2=C(C(=O)CC2)[C@@H]1c1ccc(C#N)cc1 [Example 26B, (S)-4-(1-(3-(Difluoromethyl)phenyl)-3-methyl-2,5-dioxo-2,3,4,5,6,7-hexahydro-1H-cyclopenta[d]pyrimidin-4-yl)benzonitrile]
4.6	CSc1cc(C#N)ccc1C1C2=C(CCC2=O)N(c2cccc(C(F)(F)F)c2)C(=O)N1C (centres unmarked) [Example 27.1, 4-(3-methyl-2,5-dioxo-1-(3-(trifluoromethyl)phenyl)-2,3,4,5,6,7-hexahydro-1H-cyclopenta[d]pyrimidin-4-yl)-3-(methylthio)benzonitrile]
7.1	CN1C(=O)N(c2cccc(C(F)(F)F)c2)C2=C(C(=O)CC2)C1c1ccc(C#N)cc1Br (centres unmarked) [Example 27.2]
1.2	CCS(=O)(=O)c1cc(C#N)ccc1C1C2=C(CCC2=O)N(c2cccc(C(F)(F)F)c2)C(=O)N1C (centres unmarked) [Example 27.3]
3.7	Cc1cc(C#N)ccc1C1C2=C(CCC2=O)N(c2cccc(C(F)(F)F)c2)C(=O)N1S(C)(=O)=O (centres unmarked) [Example 37.1]
1.9	CS(=O)(=O)c1cc(C#N)ccc1C1C2=C(CCC2=O)N(c2cccc(C(F)(F)F)c2)C(=O)N1S(C)(=O)=O (centres unmarked) [Example 37.3]
37.7	CS(=O)(=O)N1C(=O)N(c2cccc(C(F)(F)F)c2)C2=C(C(=O)CC2)C1c1ccc(C#N)cn1 (centres unmarked) [Example 38.1]
34.1	COc1cc(C#N)ccc1C1C2=C(CCC2=O)N(c2cccc(C(F)(F)F)c2)C(=O)N1S(C)(=O)=O (centres unmarked) [Example 38.2]
